Measured values from patent publication US7829562B2, “Sigma ligands for neuronal regeneration and functional recovery” (M's Science Corporation, priority 2003, dated 2010).

Assays:
[1] = target: sigma-1 site compared to the sigma-2 site (Homo sapiens, UniProt Q99720); conditions: (+) isomers of benzomorphan opiates; cited from earlier work
[2] = system: rat primary neuronal cultures; conditions: cited from earlier work
[3] = system: spontaneously hypertensive rats exposed to permanent middle artery occlusion (MCAO); assay: Cylinder test for asymmetric forelimb use after MCA occlusion; assay type: in vivo, rat; conditions: for performance in cylinder test versus control animals: 0.03-10 mg/kg s.c. or p.o. from two days after MCAO for 2-8 weeks, present-tense example
Text: (§1) Male 3 months old SHR (spontaneous hypertensive) rats are used for induction of stroke by MCA occlusion. This is the preferred strain since most stroke patients are hypertensive. The animals are anesthetized with Methohexital and a small craniectomy is made above the zygmotic arch to expose the middle cerebral artery, which is occluded with a 10-0 monofilament nylon thread distal to the origin of the striatal branches. The rats are not intubated and no catheters are inserted. Following MCA occlusion a large and reproducible infarct is obtained, leading to a robust sensorimotor deficit. The animals are kept on a 6 hr light/18 h dark cycle with free access to food and water. At two days after the MCAO the rats are treated with the compound I, II, III, IV, V, VI, VII, VIII, or IX (0.03-10 mg/kg) s.c. or p.o. and a control group is given saline for 2-8 weeks. At 2, 4, 6 and 8 weeks animals are tested in the rotating pole or cylinder test.
The cylinder test (modified from Schallert and Tillerson (Innovative models of CNS disease: from molecule to therapy. Clifton, N.J., Humana, 1999) is used to quantify the forelimb use for rearing on the cylinder wall. The rats are monitored as they move freely in a 20-cm-wide clear glass cylinder. Contacts made by each forepaw with the cylinder wall while rearing are scored by a blinded observer. A total of 20 contacts are recorded for each animal, and the number of impaired (left), both, and non-impaired forelimb contacts as percentage of total contacts is calculated. Baseline for rats is achieved by measuring the contacts made by each forepaw before MCAO.
Forty three spontaneously hypertensive rats were exposed to permanent middle artery occlusion (MCAO), then divided into three treatment groups. Starting at two days after occlusion and continuing daily for 14 days, AGY-94806 was administered p.o. in doses of 0.1 mg/kg (14 rats) or 0.3 mg/kg (14 rats). In a control group (15 rats), vehicle only was administered. At the start of treatment, and at several time points during the test, the rats were assessed for their performance in the cylinder test. This test is described in Example 1. It measures the sensory-motor performance of the animals. The performance of the rats in the test was assessed one day before permanent MCAO, then at 14 days, 28 days and 59 days after permanent MCAO. The rats were monitored as they moved freely in a 20 cm-wide clear glass cylinder. Contacts made by each forepaw with the cylinder wall while rearing were scored by a blinded observer. A total of 20 contacts were recorded for each animal, and the number of impaired (left), both, and non-impaired forelimb contacts as a percentage of total contacts was calculated.

[4] = system: spontaneously hypertensive rats exposed to permanent middle artery occlusion (MCAO); assay: Rotating pole test after MCA occlusion (stroke model); assay type: in vivo, rat; conditions: 0.03-10 mg/kg s.c. or p.o. from two days after MCAO for 2-8 weeks; present-tense example
Text: as §1
Cylinder Test for Asymmetric Use of Forelimb Use in Spontaneous Rearing
Thirty five spontaneously hypertensive rats were exposed to permanent middle artery occlusion (MCAO), then divided into three treatment groups. Starting at two days after occlusion and continuing daily until 28 days after occlusion, AGY-94806 was administered s.c. in doses of 0.3 mg/kg (12 rats) or 1.0 mg/kg (12 rats). In a control group (11 rats), vehicle only was administered. At the start of treatment, and at several time points during the test, the rats were assessed for their performance in the rotating pole model. This model is described in Example 1. It requires the rats to cross a horizontally suspended rotating pole having a length of 1 m. This task measures the sensory-motor performance of the animals. The animals' behaviour was recorded using a video camera and later analyzed and scored by a trained technician. The scoring ranges from 0 to 6, with 0 being very poor performance and 6 reflecting the performance of a healthy animal (without MCAO).

[5] = system: NMDA-induced toxicity and seizures; conditions: in vivo models; cited from earlier work
gerbils = conditions: cited from earlier work

Chain of sigma-1 site compared to the sigma-2 site (Q99720 whole entry): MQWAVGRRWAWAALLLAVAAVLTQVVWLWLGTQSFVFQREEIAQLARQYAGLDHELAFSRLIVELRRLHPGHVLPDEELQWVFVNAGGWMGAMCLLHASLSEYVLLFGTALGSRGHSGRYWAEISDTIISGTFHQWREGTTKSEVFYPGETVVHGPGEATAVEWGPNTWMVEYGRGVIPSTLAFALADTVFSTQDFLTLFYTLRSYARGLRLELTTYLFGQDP

SMILES: CC(C)=CCN1CCC2(C)c3cc(O)ccc3CC1C2C (single isomer, unassigned; (+)) [(+)pentazocine]
- affinity for the sigma-1 site compared to the sigma-2 site [1]: nearly two orders of magnitude higher affinity

SMILES: COc1ccc(CCN2CCN(CCCc3ccccc3)CC2)cc1OC [AGY-94806, 1-(3,4-dimethoxyphenethyl)-4-(3-phenylpropyl) piperazine]
- hypoxia/hypoglycemia-induced neurotoxicity [2]: significantly suppress
- asymmetry of paw usage ([3]; 0.3 mg/kg p.o., all time points measured): reduced to pre-MCAO levels
- performance in cylinder test versus control animals [3]: perform better
- performance in rotating pole test versus control animals [4]: perform better

SMILES: OC(CCCN1CCN(c2ncc(F)cn2)CC1)c1ccc(F)cc1 (stereo not shown) [BMY-14802]
- protective effects against NMDA-induced toxicity and seizures [5]: in vivo protective effects

SMILES: O=C(OCCN1CCOCC1)C1(c2ccccc2)CCCCC1 [III]
- performance in cylinder test versus control animals [3]: perform better
- performance in rotating pole test versus control animals [4]: perform better

SMILES: O=C(NC1CCN(Cc2ccccc2)CC1)c1ccc(I)cc1 [II]
- performance in cylinder test versus control animals [3]: perform better
- performance in rotating pole test versus control animals [4]: perform better

SMILES: COc1ccc(CN2CCN(Cc3ccccc3)CC2)c(O)c1OC [IX]
- performance in cylinder test versus control animals [3]: perform better
- performance in rotating pole test versus control animals [4]: perform better

SMILES: COCCCC/C(=N\OCCN)c1ccc(C(F)(F)F)cc1 [I]
- performance in cylinder test versus control animals [3]: perform better
- performance in rotating pole test versus control animals [4]: perform better

SMILES: CN(CCc1ccc(Cl)c(Cl)c1)C1CCCCC1N1CCCC1 (stereo not shown) [VIII]
- performance in cylinder test versus control animals [3]: perform better
- performance in rotating pole test versus control animals [4]: perform better

SMILES: COc1cccc2c1CCC(=O)N2CCCN1CCN(c2cccc(Cl)c2)CC1 [VII]
- performance in cylinder test versus control animals [3]: perform better
- performance in rotating pole test versus control animals [4]: perform better

SMILES: CCC(C/C=C/c1ccccc1)(c1ccccc1)N(C)CC1CC1 (stereo not shown) [VI]
- performance in cylinder test versus control animals [3]: perform better
- performance in rotating pole test versus control animals [4]: perform better

SMILES: Fc1ccc(-n2cc(CCCCN3CCC4(CC3)OCc3ccccc34)c3ccccc32)cc1 [V]
- performance in cylinder test versus control animals [3]: perform better
- performance in rotating pole test versus control animals [4]: perform better

SMILES: CCN(CC)CCOC(=O)C1(c2ccccc2)CCCC1 [caramiphen]
- protective effects against NMDA-induced toxicity and seizures [5]: in vivo protective effects

SMILES: O=C(CCCN1CCC(O)(c2ccc(Cl)cc2)CC1)c1ccc(F)cc1 [haloperidol]
- protective effects against NMDA-induced toxicity and seizures [5]: in vivo protective effects

SMILES: OCCN1CCN(CCCN2c3ccccc3C=Cc3ccccc32)CC1 [opipramol]
- protection against ischemia (gerbils): protect against ischemia
